Measured values: EP0190597A2, “Retro-inverso analogs of the bradykinin potentiating peptide bpp 5a” (SCLAVO S.p.A., priority 1985, dated 1986)

Molecular target: angiotensin converting enzyme
Assay: Inhibition of angiotensin converting enzyme (method of Cushman and Cheung)
Assay type: biochemical, rabbit
Conditions: in vitro; ratio of IC50 versus BPP5a or Glp-Lys-Phe-Ala-Pro-OH
Text: In particular, comparative experiments carried out […] in order to evaluate the ACE inhibitory activity of the compounds of the present invention gave the results reported in following table I (IC50 represents the concentration of the test compound, in µM, which inhibits the angiotensin converting enzyme by 50%. The enzyme employed in this test has been isolated from rabbit lungs according to the method by Cushman and Cheung described in Biochem. Pharmacol. 2Q, 1637, (1971)).

In the case of Glp--Lys-gPhe-mAla-Pro-OH, the “IC50 times higher than that of the natural product (BPPSa) or the corresponding uninverted peptide Glp-Lys-Phe-Ala-Pro-OH” value was “more than 1000 times”.
